In patent US9593108B2, “Compounds and methods for antiviral treatment” (PTC Therapeutics, Inc., priority 2009, dated 2017):

Legend:
[1] = tested on: HCV replicon RNA (GenBank Accession No. AJ242654); test: HCV Replicon Assay (replicon RNA reduction and/or Fluc reporter signal); assay type: cell-based, Hepatitis C virus; conditions: Hepatitis C virus, 72 h, replicon-containing cells cultured with test compound for up to 3 days
Method in brief: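 Bicistronic replicon-containing cells cultured with compound for up to 3 days, with interferon as positive control. Inhibition quantified by replicon RNA reduction and/or Fluc reporter signal; IC50 values generally derived from replicon RNA reduction.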

Compound	IC50 [1] [nM]	melting point [°C]
CCc1cnc2c(c1)c(C#N)c(-c1ccc(S(=O)(=O)N[C@@H](C)C(F)(F)F)cn1)n2-c1ccc(F)cn1 [Cpd 474, 6-[3-cyano-5-ethyl-1-(5-fluoropyridin-2-yl)-1H-pyrrolo[2,3-b]pyridin-2-yl]-N-[(2S)-1,1,1-trifluoropropan-2-yl]pyridine-3-sulfonamide]	< 500	175 to 177
Cc1cnc2c(C#N)c(-c3ccc(S(=O)(=O)N[C@@H](C)C(F)(F)F)cn3)n(-c3ncccn3)c2c1 [Cpd 475, 6-[3-cyano-6-methyl-1-(pyrimidin-2-yl)-1H-pyrrolo[3,2-b]pyridin-2-yl]-N-[(2S)-1,1,1-trifluoropropan-2-yl]pyridine-3-sulfonamide]	< 500	226 to 228
Cc1cnc2c(C#N)c(-c3ccc(S(=O)(=O)N[C@@H](C)C(F)(F)F)cn3)n(-c3ccccc3)c2c1 [Cpd 476, 6-(3-cyano-6-methyl-1-phenyl-1H-pyrrolo[3,2-b]pyridin-2-yl)-N-[(2S)-1,1,1-trifluoropropan-2-yl]pyridine-3-sulfonamide]	< 500	245 to 247
Cc1cnc2c(C#N)c(-c3ccc(S(=O)(=O)N[C@@H](C)C(F)(F)F)cn3)n(-c3nccs3)c2c1 [Cpd 477, 6-[3-cyano-6-methyl-1-(1,3-thiazol-2-yl)-1H-pyrrolo[3,2-b]pyridin-2-yl]-N-[(2S)-1,1,1-trifluoropropan-2-yl]pyridine-3-sulfonamide]	< 500	230 to 232
Cc1cnc2c(C#N)c(-c3ccc(S(=O)(=O)N[C@@H](C)C(F)(F)F)cn3)n(-c3cncs3)c2c1 [Cpd 478, 6-[3-cyano-6-methyl-1-(1,3-thiazol-5-yl)-1H-pyrrolo[3,2-b]pyridin-2-yl]-N-[(2S)-1,1,1-trifluoropropan-2-yl]pyridine-3-sulfonamide]	500 to 2000	273 to 275
Cc1cnc2c(C#N)c(-c3ccc(S(=O)(=O)N[C@@H](C)C(F)(F)F)cn3)n(-c3cc(C(F)(F)F)ccn3)c2c1 [Cpd 479, 6-{3-cyano-6-methyl-1-[4-(trifluoromethyl)pyridin-2-yl]-1H-pyrrolo[3,2-b]pyridin-2-yl}-N-[(2S)-1,1,1-trifluoropropan-2-yl]pyridine-3-sulfonamide]	500 to 2000	245 to 246
Cc1cnc2c(C#N)c(-c3ccc(S(=O)(=O)N[C@@H](C)C(F)(F)F)cn3)n(-c3ccnnc3)c2c1 [Cpd 480, 6-[3-cyano-6-methyl-1-(pyridazin-4-yl)-1H-pyrrolo[3,2-b]pyridin-2-yl]-N-[(2S)-1,1,1-trifluoropropan-2-yl]pyridine-3-sulfonamide]	2000 to 5000	283 to 285
Cc1cnc2c(C#N)c(-c3ccc(S(=O)(=O)N[C@@H](C)C(F)(F)F)cn3)n(-c3ccncn3)c2c1 [Cpd 481, 6-[3-cyano-6-methyl-1-(pyrimidin-4-yl)-1H-pyrrolo[3,2-b]pyridin-2-yl]-N-[(2S)-1,1,1-trifluoropropan-2-yl]pyridine-3-sulfonamide]	< 500	265 to 267
Cc1cnc2c(C#N)c(-c3ccc(S(=O)(=O)N[C@@H](C)C(F)(F)F)cn3)n(-c3ccncc3)c2c1 [Cpd 482, 6-[3-cyano-6-methyl-1-(pyridin-4-yl)-1H-pyrrolo[3,2-b]pyridin-2-yl]-N-[(2S)-1,1,1-trifluoropropan-2-yl]pyridine-3-sulfonamide]	< 500	303 to 305
Cc1cnc2c(c1)c(C#N)c(-c1ccc(S(=O)(=O)N[C@@H](C)C(F)(F)F)cc1)n2C [Cpd 483, 4-(3-cyano-1,5-dimethyl-1H-pyrrolo[2,3-b]pyridin-2-yl)-N-[(2S)-1,1,1-trifluoropropan-2-yl]benzenesulfonamide]	500 to 2000	165 to 170
CCn1c(-c2ccc(S(=O)(=O)N[C@@H](C)C(F)(F)F)cc2)c(C#N)c2cc(C)cnc21 [Cpd 484, 4-(3-cyano-1-ethyl-5-methyl-1H-pyrrolo[2,3-b]pyridin-2-yl)-N-[(2S)-1,1,1-trifluoropropan-2-yl]benzenesulfonamide]	500 to 2000	147 to 152
CCCn1c(-c2ccc(S(=O)(=O)N[C@@H](C)C(F)(F)F)cc2)c(C#N)c2cc(C)cnc21 [Cpd 485, 4-(3-cyano-5-methyl-1-propyl-1H-pyrrolo[2,3-b]pyridin-2-yl)-N-[(2S)-1,1,1-trifluoropropan-2-yl]benzenesulfonamide]	< 500	235 to 240
Cc1cnc2c(c1)c(C#N)c(-c1ccc(S(=O)(=O)N[C@@H](C)C(F)(F)F)cc1)n2C(C)C [Cpd 486, 4-[3-cyano-5-methyl-1-(propan-2-yl)-1H-pyrrolo[2,3-b]pyridin-2-yl]-N-[(2S)-1,1,1-trifluoropropan-2-yl]benzenesulfonamide]	< 500	197 to 202
Cc1cnc2c(c1)c(C#N)c(-c1ccc(S(=O)(=O)N[C@@H](C)C(F)(F)F)cc1)n2CC1CC1 [Cpd 487, 4-[3-cyano-1-(cyclopropylmethyl)-5-methyl-1H-pyrrolo[2,3-b]pyridin-2-yl]-N-[(2S)-1,1,1-trifluoropropan-2-yl]benzenesulfonamide]	< 500	175 to 181
Cc1cnc2c(c1)c(C#N)c(-c1ccc(S(=O)(=O)N[C@@H](C)C(F)(F)F)cc1)n2CC(C)C [Cpd 488, 4-[3-cyano-5-methyl-1-(2-methylpropyl)-1H-pyrrolo[2,3-b]pyridin-2-yl]-N-[(2S)-1,1,1-trifluoropropan-2-yl]benzenesulfonamide]	< 500	168 to 176
Cc1cnc2c(c1)c(C#N)c(-c1ccc(S(=O)(=O)N[C@@H](C)C(F)(F)F)cc1)n2CC1CCC1 [Cpd 489, 4-[3-cyano-1-(cyclobutylmethyl)-5-methyl-1H-pyrrolo[2,3-b]pyridin-2-yl]-N-[(2S)-1,1,1-trifluoropropan-2-yl]benzenesulfonamide]	< 500	154 to 158
Cc1cnc2c(c1)c(C#N)c(-c1ccc(S(=O)(=O)N[C@@H](C)C(F)(F)F)cn1)n2C [Cpd 490, 6-(3-cyano-1,5-dimethyl-1H-pyrrolo[2,3-b]pyridin-2-yl)-N-[(2S)-1,1,1-trifluoropropan-2-yl]pyridine-3-sulfonamide]	500 to 2000	182 to 186
CCn1c(-c2ccc(S(=O)(=O)N[C@@H](C)C(F)(F)F)cn2)c(C#N)c2cc(C)cnc21 [Cpd 491, 6-(3-cyano-1-ethyl-5-methyl-1H-pyrrolo[2,3-b]pyridin-2-yl)-N-[(2S)-1,1,1-trifluoropropan-2-yl]pyridine-3-sulfonamide]	< 500	168 to 171
CCCn1c(-c2ccc(S(=O)(=O)N[C@@H](C)C(F)(F)F)cn2)c(C#N)c2cc(C)cnc21 [Cpd 492, 6-(3-cyano-5-methyl-1-propyl-1H-pyrrolo[2,3-b]pyridin-2-yl)-N-[(2S)-1,1,1-trifluoropropan-2-yl]pyridine-3-sulfonamide]	< 500	145 to 149
Cc1cnc2c(c1)c(C#N)c(-c1ccc(S(=O)(=O)N[C@@H](C)C(F)(F)F)cn1)n2C(C)C [Cpd 493, 6-[3-cyano-5-methyl-1-(propan-2-yl)-1H-pyrrolo[2,3-b]pyridin-2-yl]-N-[(2S)-1,1,1-trifluoropropan-2-yl]pyridine-3-sulfonamide]	< 500	157 to 162
Cc1cnc2c(c1)c(C#N)c(-c1ccc(S(=O)(=O)N[C@@H](C)C(F)(F)F)cn1)n2CC1CC1 [Cpd 494, 6-[3-cyano-1-(cyclopropylmethyl)-5-methyl-1H-pyrrolo[2,3-b]pyridin-2-yl]-N-[(2S)-1,1,1-trifluoropropan-2-yl]pyridine-3-sulfonamide]	< 500	198 to 204
Cc1cnc2c(c1)c(C#N)c(-c1ccc(S(=O)(=O)N[C@@H](C)C(F)(F)F)cn1)n2CC(C)C [Cpd 495, 6-[3-cyano-5-methyl-1-(2-methylpropyl)-1H-pyrrolo[2,3-b]pyridin-2-yl]-N-[(2S)-1,1,1-trifluoropropan-2-yl]pyridine-3-sulfonamide]	< 500	125 to 130
Cc1cnc2c(c1)c(C#N)c(-c1ccc(S(=O)(=O)N[C@@H](C)C(F)(F)F)cn1)n2CC1CCC1 [Cpd 496, 6-[3-cyano-1-(cyclobutylmethyl)-5-methyl-1H-pyrrolo[2,3-b]pyridin-2-yl]-N-[(2S)-1,1,1-trifluoropropan-2-yl]pyridine-3-sulfonamide]	< 500	135 to 139
C[C@H](NS(=O)(=O)c1ccc(-c2c(C#N)c3cc(N(C)C)cnc3n2C2CCC2)nc1)C(F)(F)F [Cpd 497, 6-[3-cyano-1-cyclobutyl-5-(dimethylamino)-1H-pyrrolo[2,3-b]pyridin-2-yl]-N-[(2S)-1,1,1-trifluoropropan-2-yl]pyridine-3-sulfonamide]	< 500	183 to 185
CN(C)c1cnc2c(c1)c(C#N)c(-c1ccc(NS(=O)(=O)C(C)(C)C)cc1)n2C1CCC1 [Cpd 498, N-{4-[3-cyano-1-cyclobutyl-5-(dimethylamino)-1H-pyrrolo[2,3-b]pyridin-2-yl]phenyl}-2-methylpropane-2-sulfonamide]	< 500	200 to 202
CN(C)c1cnc2c(c1)c(C#N)c(-c1ccc(NS(=O)(=O)C3(C)CC3)cc1)n2C1CCC1 [Cpd 499, N-{4-[3-cyano-1-cyclobutyl-5-(dimethylamino)-1H-pyrrolo[2,3-b]pyridin-2-yl]phenyl}-1-methylcyclopropanesulfonamide]	< 500	209 to 213
C[C@H](NS(=O)(=O)c1ccc(-c2c(C#N)c3cc(N(C)C)cnc3n2C2CCC2)cc1)C(F)(F)F [Cpd 500, 4-[3-cyano-1-cyclobutyl-5-(dimethylamino)-1H-pyrrolo[2,3-b]pyridin-2-yl]-N-[(2S)-1,1,1-trifluoropropan-2-yl]benzenesulfonamide]	< 500	198 to 200
